Source: paper PMC4620045 (Journal of pharmacokinetics and pharmacodynamics, 2015)
Like-named read-outs stand apart in the source and are kept apart here.

Tests used:
[1] = format: in vivo, BALB/c mice; settings: male, BALB/c, mouse, iv
[2] = Global PBPK model fitted to mouse plasma and tissue PK data; format: in vivo, mice; settings: for Nonspecific binding (NSti): mice, model estimate
[3] = Kidney (renal clearance CLr); fixed to reported GFR value in mice; cited from earlier work
plasma proteins = settings: cited from earlier work
[4] = monkeys; cited from earlier work
[5] = system: enzymes responsible for its elimination; settings: cited from earlier work

Work on `CC(C)C[C@H](NC(=O)[C@H](Cc1ccccc1)NC(=O)c1cnccn1)B(O)O` [Bortezomib] yielded an AUC(0-inf) ([1]; bone, 0.25 mg/kg) of 23.7 µM·h, a Kp ([1]; bone, 0.25 mg/kg) of 26.9 and a half-life ([1]; bone, 0.25 mg/kg) of 277 h. It also gave an AUC(0-inf) ([1]; bone, 1 mg/kg) of 27.2 µM·h, a Kp ([1]; bone, 1 mg/kg) of 1.4 and a half-life ([1]; bone, 1 mg/kg) of 173 h. It also gave an AUC(0-inf) ([1]; kidney, 0.25 mg/kg) of 24.7 µM·h, a half-life ([1]; kidney, 0.25 mg/kg) of 59 h and an AUC(0-inf) ([1]; kidney, 1 mg/kg) of 180 µM·h. It also gave a half-life ([1]; kidney, 1 mg/kg) of 204 h, an AUC(0-inf) ([1]; liver, 0.25 mg/kg) of 17 µM·h and a half-life ([1]; liver, 0.25 mg/kg) of 69 h. The AUC(0-inf) ([1]; liver, 1 mg/kg) was 33.3 µM·h, the half-life ([1]; liver, 1 mg/kg) was 105 h and the AUC(0-inf) ([1]; lung, 0.25 mg/kg) was 39.3 µM·h. The Kp ([1]; lung, 0.25 mg/kg) was 44.7, the half-life ([1]; lung, 0.25 mg/kg) was 178 h and the AUC(0-inf) ([1]; lung, 1 mg/kg) was 60.9 µM·h. It also gave a Kp ([1]; lung, 1 mg/kg) of 3.1, a half-life ([1]; lung, 1 mg/kg) of 133 h and an AUC(0-inf) ([1]; muscle, 0.25 mg/kg) of 5.7 µM·h. The Kp ([1]; muscle, 0.25 mg/kg) was 6.4, the half-life ([1]; muscle, 0.25 mg/kg) was 204 h and the AUC(0-inf) ([1]; muscle, 1 mg/kg) was 17.3 µM·h. The Kp ([1]; muscle, 1 mg/kg) was 0.9, the half-life ([1]; muscle, 1 mg/kg) was 112 h and the AUC(0-inf) ([1]; plasma, 0.25 mg/kg) was 0.9 µM·h. It also gave a Kp ([1]; plasma, 0.25 mg/kg) of 1, a half-life ([1]; plasma, 0.25 mg/kg) of 96 h and an AUC(0-inf) ([1]; plasma, 1 mg/kg) of 19.4 µM·h. For the same compound, the Kp ([1]; plasma, 1 mg/kg) was 1, the half-life ([1]; plasma, 1 mg/kg) was 267 h and the AUC(0-inf) ([1]; spleen, 0.25 mg/kg) was 103 µM·h. The Kp ([1]; spleen, 0.25 mg/kg) was 117, the half-life ([1]; spleen, 0.25 mg/kg) was 248 h and the AUC(0-inf) ([1]; spleen, 1 mg/kg) was 107 µM·h. It also gave a Kp ([1]; spleen, 1 mg/kg) of 5.5, a half-life ([1]; spleen, 1 mg/kg) of 131 h and an AUC(0-inf) ([1]; whole blood, 0.25 mg/kg) of 46.4 µM·h. For the same compound, the Kp ([1]; whole blood, 0.25 mg/kg) was 52.8, the half-life ([1]; whole blood, 0.25 mg/kg) was 182 h and the AUC(0-inf) ([1]; whole blood, 1 mg/kg) was 92 µM·h. For the same compound, the Kp ([1]; whole blood, 1 mg/kg) was 4.8, the half-life ([1]; whole blood, 1 mg/kg) was 173 h and the “Nonspecific binding (NSti)” value ([2]; Bone) was 1.06. The “Nonspecific binding (NSti)” value ([2]; Erythrocyte) was 7.57, the “Nonspecific binding (NSti)” value ([2]; Kidney) was 9.60 and the “Nonspecific binding (NSti)” value ([2]; Liver) was 1.54. The “Nonspecific binding (NSti)” value ([2]; Lung) was 2.54, the “Nonspecific binding (NSti)” value ([2]; Muscle) was 1.17 and the “Nonspecific binding (NSti)” value ([2]; Remainder compartment) was 96.76. For the same compound, the “Nonspecific binding (NSti)” value ([2]; Spleen) was 3.68, the clearance ([2]; male, BALB/c, mouse, liver, intravenous) was 0.0063 mL/min and the clearance [3] was 0.28 mL/min. The “Plasma protein unbound fraction (fu)” value (plasma proteins; fixed in PBPK model) was 0.17, the “Binding to plasma proteins” value (plasma proteins; linear binding at therapeutic concentrations) was “approximately 83%” and the “Renal clearance contribution to elimination” value [4] was “approximately 25%”. For the same compound, the “Induction or inhibition of enzymes responsible for its elimination” value [5] was “not an inducer or inhibitor”.
